Results published in article PMC9307089 (Journal of medicinal chemistry, 2021).
Numbered stars: 1 amine (or outer) side, 2 acyl side, 3 side chain; on linkers, the order of the positions; unused ones are H or OH. Bridge positions count the residues as written; N and C are the ends. Square brackets hold non-standard residues; d marks the D form. Peptide text beside a SMILES is read from it. X1 = N=C(N)NCCC[C@H](N[*:1])C(=O)c1nc2ccc(C(=O)[*:2])cc2s1

Key:
[1] = In vitro stability in mouse plasma; type: in vitro ADME
matriptase = target: T1, matriptase (Homo sapiens, UniProt Q9Y5Y6); experiment: Fluorescent kinetic enzyme inhibition assay, matriptase; type: biochemical
T1 sequence (Q9Y5Y6 615-855 limits assumed): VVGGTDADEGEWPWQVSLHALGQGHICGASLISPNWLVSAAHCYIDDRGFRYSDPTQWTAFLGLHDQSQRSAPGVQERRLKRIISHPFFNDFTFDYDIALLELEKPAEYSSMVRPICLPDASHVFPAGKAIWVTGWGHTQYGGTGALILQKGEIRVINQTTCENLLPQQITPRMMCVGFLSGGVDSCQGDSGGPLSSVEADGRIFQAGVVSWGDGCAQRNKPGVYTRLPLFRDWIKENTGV

[2] = target: T2, recombinant serine protease domain of HGFA (Homo sapiens, UniProt Q04756); experiment: Fluorescent kinetic enzyme inhibition assay, HGFA; type: biochemical
T2 sequence (Q04756 408-646 limits assumed): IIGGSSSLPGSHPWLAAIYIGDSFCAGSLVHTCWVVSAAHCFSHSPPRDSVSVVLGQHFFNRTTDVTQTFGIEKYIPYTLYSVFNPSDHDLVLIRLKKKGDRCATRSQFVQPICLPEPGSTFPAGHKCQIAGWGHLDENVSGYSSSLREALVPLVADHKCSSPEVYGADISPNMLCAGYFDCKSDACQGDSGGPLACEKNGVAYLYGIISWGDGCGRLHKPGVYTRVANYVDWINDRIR

thrombin = thrombin (Homo sapiens, UniProt P00734); experiment: Chromogenic kinetic enzyme assay, thrombin; type: biochemical
[3] = In vitro stability in human plasma; type: in vitro ADME
Factor Xa = Factor Xa (Homo sapiens, UniProt P00742); experiment: Chromogenic kinetic enzyme assay, Factor Xa; type: biochemical
Chain of Factor Xa (P00742 235-488 limits assumed): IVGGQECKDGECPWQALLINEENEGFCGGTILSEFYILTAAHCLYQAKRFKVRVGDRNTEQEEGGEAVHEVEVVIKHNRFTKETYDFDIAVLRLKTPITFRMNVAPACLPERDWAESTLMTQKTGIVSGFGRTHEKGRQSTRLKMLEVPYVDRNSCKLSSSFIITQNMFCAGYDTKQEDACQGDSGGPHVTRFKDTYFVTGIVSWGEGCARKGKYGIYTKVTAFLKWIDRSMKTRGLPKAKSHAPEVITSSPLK
Chain of Factor Xa (P00742 41-179 partner limits assumed): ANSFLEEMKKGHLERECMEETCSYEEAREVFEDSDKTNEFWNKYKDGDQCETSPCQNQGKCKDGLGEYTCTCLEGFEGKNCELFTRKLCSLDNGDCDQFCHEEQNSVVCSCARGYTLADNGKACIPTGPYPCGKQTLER

half-life [1]: > 4.82 h
IC50 (matriptase): 11 nM
IC50 [2]: 5380 nM
IC50 (thrombin): 34 nM
half-life [3]: > 4.82 h
IC50 (Factor Xa): 118 nM
SMILES: CC(=O)N[C@H]1CC(=O)NCCCC[C@@H](C(=O)N[C@@H](CCCNC(=N)N)C(=O)c2nc3ccc(C(=O)N[C@H](C(N)=O)C(C)C)cc3s2)NC(=O)[C@H](CC(C)C)NC1=O [Compound 20, Ac-cyclo(DLK)-R- ketobenzothiazole-V-amide] (Ac-DLK[X1]V-NH2; lactam 1-3)
